According to patent publication US9944647B2 (Incyte Corporation, priority 2015, dated 2018):
pIC50: −log10 of the molar value.

Each compound was assayed against LSD-1 enzyme (Homo sapiens (Human), UniProt O60341) (assay: LANCE LSD1/KDM1A demethylase assay (LSD1 histone demethylase biochemical assay)). Settings: 1 nM LSD-1 enzyme, 1 hour preincubation at 25° C., Biotin-labeled Histone H3 peptide substrate.
Experimental: Example A: LSD1 Histone Demethylase Biochemical Assay
LANCE LSD1/KDM1A demethylase assay—10 μL of 1 nM LSD-1 enzyme (ENZO BML-SE544-0050) in the assay buffer (50 mM Tris, pH 7.5, 0.01% Tween-20, 25 mM NaCl, 5 mM DTT) were preincubated for 1 hour at 25° C. with 0.8 μL compound/DMSO dotted in black 384 well polystyrene plates. […] Reactions were stopped by addition of 10 μL 1×LANCE Detection Buffer (PerkinElmer CR97-100) supplemented with 1.5 nM Eu-anti-unmodified H3K4 Antibody (PerkinElmer TRF0404), and 225 nM LANCE Ultra Streptavidin (PerkinElmer TRF102) along with 0.9 mM Tranylcypromine-HCl (Millipore 616431). After stopping the reactions plates were incubated for 30 minutes and read on a PHERAstar FS plate reader (BMG Labtech).

SMILES	pIC50
CN1CC[C@@H](COc2nc(-c3ccc(C#N)cc3)c(-c3ccc4c(c3)ncn4C)c3nccn23)C1 [Example 25, 4-(8-(1-methyl-1H-benzimidazol-5-yl)-5-{[(3R)-1-methylpyrrolidin-3-yl]methoxy}imidazo[1,2-c]pyrimidin-7-yl)benzonitrile]	6.30 to 7.30
Cc1ccc(-c2c(-c3ccc(C#N)cc3)nc(OC[C@@H]3CCCN(C)C3)n3ccnc23)cc1C#N [Example 96, 5-(7-(4-cyanophenyl)-5-{[(3R)-1-methylpiperidin-3-yl]methoxy}imidazo[1,2-c]pyrimidin-8-yl)-2-methylbenzonitrile]	≥ 7.30
CN1CCN(C(=O)Cc2ccc(-c3c(-c4ccc(C#N)cc4)nc(OC[C@@H]4CCCN(C)C4)n4ccnc34)cc2)CC1 [Example 10, 4-(8-{4-[2-(4-methylpiperazin-1-yl)-2-oxoethyl]phenyl}-5-{[(3R)-1-methylpiperidin-3-yl]methoxy}imidazo[1,2-c]pyrimidin-7-yl)benzonitrile]	≥ 7.30
Cc1ccc(-c2c(-c3ccc(C#N)cc3)nc(OC[C@@H]3CCN(C)C3)n3ccnc23)cc1 [Example 2, 4-(8-(4-methylphenyl)-5-{[(3R)-1-methylpyrrolidin-3-yl]methoxy}imidazo[1,2-c]pyrimidin-7-yl)benzonitrile]	6.30 to 7.30
CCN1CCC[C@@H](COc2nc(-c3ccc(C#N)cc3)c(-c3ccc4c(c3)oc(=O)n4C)c3nccn23)C1 [Example 55, 4-[5-{1[(3R)-1-ethylpiperidin-3-yl]methoxy}-8-(3-methyl-2-oxo-2,3-dihydro-1,3-benzoxazol-6-yl)imidazo[1,2-c]pyrimidin-7-yl]benzonitrile]	≥ 7.30
CN(C)C1CCN(c2nc(-c3ccc(C#N)cc3)c(-c3ccc(N(C)S(C)(=O)=O)nc3)c3nccn23)CC1 [Example 115, N-(5-{7-(4-cyanophenyl)-5-[4-(dimethylamino)piperidin-1-yl]imidazo[1,2-c]pyrimidin-8-yl}pyridin-2-yl)-N-methylmethanesulfonamide]	≥ 7.30
CN1CCC[C@@H](COc2nc(-c3ccc(C#N)cc3)c(-c3ccc(CO)c(Cl)c3)c3nccn23)C1 [Example 101, 4-(8-[3-chloro-4-(hydroxymethyl)phenyl]-5-{[(3R)-1-methylpiperidin-3-yl]methoxy}imidazo[1,2-c]pyrimidin-7-yl)benzonitrile]	≥ 7.30
CN(C)C1CCN(c2nc(-c3ccc(C#N)cc3)c(-c3cc(F)c(CO)c(F)c3)c3nccn23)CC1 [Example 90, 4-{8-[3,5-difluoro-4-(hydroxymethyl)phenyl]-5-[4-(dimethylamino)piperidin-1-yl]imidazo[1,2-c]pyrimidin-7-yl}benzonitrile]	≥ 7.30
Cc1ccc(-c2c(-c3ccc(C#N)cc3)nc(N3CCC(N(C)C)CC3)n3ccnc23)cc1CO [Example 102, 4-{5-[4-(dimethylamino)piperidin-1-yl]-8-[3-(hydroxymethyl)-4-methylphenyl]imidazo[1,2-c]pyrimidin-7-yl}benzonitrile]	≥ 7.30
CN1CCC[C@@H](COc2nc(-c3ccc(C#N)cc3)c(-c3ccc(N4CCCC4=O)nc3)c3nccn23)C1 [Example 16, 4-{5-{[(3R)-1-methylpiperidin-3-yl]methoxy}-8-[6-(2-oxopyrrolidin-1-yl)pyridin-3-yl]imidazo[1,2-c]pyrimidin-7-yl}benzonitrile]	6.30 to 7.30
CN1CCC[C@@H](COc2nc(-c3ccc(C#N)cc3)c(-c3cc(F)c4c(c3)oc(=O)n4C)c3nccn23)C1 [Example 59, 4-(8-(4-fluoro-3-methyl-2-oxo-2,3-dihydro-1,3-benzoxazol-6-yl)-5-{[(3R)-1-methylpiperidin-3-yl]methoxy}imidazo[1,2-c]pyrimidin-7-yl)benzonitrile]	≥ 7.30
Cc1ccc(-c2c(-c3ccc(C#N)cc3)nc(N3CC[C@@H](N(C)C)C3)n3ccnc23)cc1CO [Example 100, 4-{5-[(3R)-3-(dimethylamino)pyrrolidin-1-yl]-8-[3-(hydroxymethyl)-4-methylphenyl]imidazo[1,2-c]pyrimidin-7-yl}benzonitrile]	≥ 7.30
CN1CCC[C@@H](COc2nc(-c3ccc(C#N)cc3)c(-c3cnc4c(ccn4C)c3)c3nccn23)C1 [Example 19, 4-[5-{[(3R)-1-methylpiperidin-3-yl]methoxy}-8-(1-methyl-1H-pyrrolo[2,3-b]pyridin-5-yl)imidazo[1,2-c]pyrimidin-7-yl]benzonitrile]	≥ 7.30
CN1CCC[C@@H](COc2nc(-c3ccc(C#N)cc3)c(-c3ccc4c(c3)ncn4C)c3nccn23)C1 [Example 17, 4-(8-(1-methyl-1H-benzimidazol-5-yl)-5-{[(3R)-1-methylpiperidin-3-yl]methoxy}imidazo[1,2-c]pyrimidin-7-yl)benzonitrile]	≥ 7.30
CN1CCC[C@@H](COc2nc(-c3ccc(C#N)cc3)c(-c3ccc4c(c3)N(C)C(=O)CC4)c3nccn23)C1 [Example 79, 4-(8-(1-methyl-2-oxo-1,2,3,4-tetrahydroquinolin-7-yl)-5-{[(3R)-1-methylpiperidin-3-yl]methoxy}imidazo[1,2-c]pyrimidin-7-yl)benzonitrile]	6.30 to 7.30
CN(C)C1CCN(c2nc(-c3ccc(C#N)cc3)c(-c3ccc4nccnc4c3)c3nccn23)CC1 [Example 126, 4-{5-[4-(dimethylamino)piperidin-1-yl]-8-quinoxalin-6-ylimidazo[1,2-c]pyrimidin-7-yl}benzonitrile]	6.30 to 7.30
CN1CCN(Cc2ccc(-c3c(-c4ccc(C#N)cc4)nc(OC[C@@H]4CCCN(C)C4)n4ccnc34)cc2)CC1 [Example 9, 4-(8-{4-[(4-methylpiperazin-1-yl)methyl]phenyl}-5-{[(3R)-1-methylpiperidin-3-yl]methoxy}imidazo[1,2-c]pyrimidin-7-yl)benzonitrile]	≥ 7.30
COC(=O)N(C)Cc1ccc(-c2c(-c3ccc(C#N)cc3)nc(OC[C@@H]3CCCN(C)C3)n3ccnc23)cc1F [Example 40, methyl[4-(7-(4-cyanophenyl)-5-{[(3R)-1-methylpiperidin-3-yl]methoxy}imidazo[1,2-c]pyrimidin-8-yl)-2-fluorobenzyl]methylcarbamate]	≥ 7.30
COCc1ccc(-c2c(-c3ccc(C#N)cc3)nc(OC[C@@H]3CCCN(C)C3)n3ccnc23)cc1 [Example 94, 4-(8-[4-(methoxymethyl)phenyl]-5-{[(3R)-1-methylpiperidin-3-yl]methoxy}imidazo[1,2-c]pyrimidin-7-yl)benzonitrile]	≥ 7.30
CN1C(=O)Cc2cc(-c3c(-c4ccc(C#N)cc4)nc(N4CCC(N(C)C)CC4)n4ccnc34)ccc21 [Example 62, 4-[5-[4-(dimethylamino)piperidin-1-yl]-8-(1-methyl-2-oxo-2,3-dihydro-1H-indol-5-yl)imidazo[1,2-c]pyrimidin-7-yl]benzonitrile]	≥ 7.30
CN(C)C1CCN(c2nc(-c3ccc(C#N)cc3)c(-c3cnc4c(c3)oc(=O)n4C)c3nccn23)CC1 [Example 60, 4-[5-[4-(dimethylamino)piperidin-1-yl]-8-(3-methyl-2-oxo-2,3-dihydro[1,3]oxazolo[4,5-b]pyridin-6-yl)imidazo[1,2-c]pyrimidin-7-yl]benzonitrile]	≥ 7.30
CN1CCC[C@@H](COc2nc(-c3ccc(C#N)cc3)c(-c3ccc(CO)cc3)c3nccn23)C1 [Example 36, 4-(8-[4-(hydroxymethyl)phenyl]-5-{[(3R)-1-methylpiperidin-3-yl]methoxy}imidazo[1,2-c]pyrimidin-7-yl)benzonitrile]	≥ 7.30
